US6451856B1, “Carnitine supplemented diets for gestating and lactating swine” (Lonza Inc., priority 1996, dated 2002)

What was measured:
Type in all cases: in vivo, swine
sows (PIC Line C-15x326) [1] = test: Effect of L-carnitine fed during gestation, lactation or both on sow and litter performance; conditions: for Litter birth weight / Litter weight at weaning / Litter weight gain / Pig birth weight / Pig wean weight / Pig weight gain / Survivability: 50 ppm L-carnitine in diet; for Pigs weaned per litter / Average daily feed intake, overall / Average daily feed intake, wk 1 / Average daily feed intake, wk 2: 50 ppm L-carnitine; for Pigs weaned per litter: pigs per litter on day 2 as covariate; for Average daily feed intake, overall / Average daily feed intake, wk 1 / Average daily feed intake, wk 2: sow lactation feed intake
Source text: A total of 307 sows (PIC Line C-15x326) were used to determine the effect of feeding 50 ppm L-carnitine on the sow and litter performance. Sows were randomly assigned to either control or test dietary treatments. The three test treatments were designated as follows: (i) control/carnitine (in which carnitine was supplemented only during the period of lactation); (ii) carnitine/control (in which carnitine was supplemented only during the period of gestation) and (iii) carnitine/carnitine (in which carnitine was supplemented during the periods of both gestation and lactation).
A gestation diet was formulated to contain nutrients in excess of NRC (1988) estimates, and included 79.51% milo; 15.22% soybean meal (46.5% CP); 2.51% monocalcium phosphate; 1.11% limestone; 0.5% sodium chloride; 0.25% sow premix; 0.25% vitamin premix; and 0.15% trace element premix. This diet contained 0.65% total lysine, 0.95% Ca and 0.85% P. Experimental gestation diet contained 50 ppm L-carnitine. Sows were fed 4 lb of diet/day once a day until farrowing. Sows were weighed and last rib fat debt was recorded at day 110 of gestation. At farrowing, a number of pigs born live, stillborn, and mummies were recorded. Individual pig weight and litter weight were also recorded. Within 48 hours from farrowing, litters were equalized within dietary treatment.
A lactation diet was formulated to contain nutrients in excess of NRC (1988) estimates, and included 62.91% milo; 28.41% soybean meal (46.5% CP); 4% soybean oil; 2.33% monocalcium phosphate; 1.12% limestone; 0.5% sodium chloride; 0.25% sow premix; 0.25% vitamin premix; 0.15% trace element premix; 0.05% vitamin E and 0.02% DL-Methionine. This diet contained 1.0% total lysine, 0.95% Ca and 0.85% P. Experimental lactation diet contained 50 ppm L-carnitine. The sows were allowed ad libitum access to feed. Feed intake was measured weekly. Pigs were weighed at weaning to determine pig and litter weight. Sows were ultrasonically scanned for last rib fat debt at weaning.
The data were analyzed by analysis of variance using GLM procedure of SAS (1988).

sows (PIC Line C-15x326) [2] = test: Effects of L-carnitine on subsequent reproductive performance (second reproductive cycle, no carnitine); conditions: for Days to estrus / Farrowing rate / Number born live / Number total born: first-cycle 50 ppm L-carnitine; for Farrowing rate / Number born live / Number total born: second cycle
Experimental: The effect of carnitine on subsequent reproductive performance was also measured. Sows fed diets described above were continued to be monitored during the subsequent, i.e., second cycle of reproduction. The sow diets were not supplemented with carnitine during the second cycle of reproduction to determine if carnitine had any residual effect. The total number of pigs born and the number of pigs born alive were determined. Referring to Table 5, feeding carnitine in the first reproductive cycle increased the total number of born pigs and the number of pigs born alive in the second reproductive cycle.

sows (PIC Line C-15x326) [3] = test: Sow plasma analysis for insulin and IGF-I
Experimental: Sows were bled at day 10, 60, 90 and 110 of gestation and at weaning. Plasma samples were analyzed for concentration of free and total carnitine, insulin, and insulin-like growth factor I (IGF-I). The data were analyzed by analysis of variance using GLM procedure of SAS (1988).

[4] = gestation and lactation (carnitine/carnitine)
[5] = gestation only (carnitine/control)
[6] = gestation only (carnitine/control), listed as Carnitine
[7] = lactation only (control/carnitine)
[8] = carnitine fed in the first reproductive cycle, none in the second

## C[N+](C)(C)C[C@H](O)CC(=O)[O-] [L-carnitine]
Sows (PIC Line C-15x326) [1]; [4]
  Litter birth weight: 34.49 lb
  Litter weight at weaning: 99.03 lb
  Litter weight gain: 64.25 lb
  Pig birth weight: 3.53 lb
  Pig wean weight: 10.99 lb
  Pig weight gain: 7.45 lb
  Survivability: 90.45%
  Pigs weaned per litter: 9.00
  Average daily feed intake, overall: 13.58 lb
  Average daily feed intake, wk 1: 11.88 lb
  Average daily feed intake, wk 2: 14.87 lb
Sows (PIC Line C-15x326) [1]; [5]
  Litter birth weight: increased
  Litter weight at weaning: increased
  Litter weight gain: increased
  Pig birth weight: increased
  Pig wean weight: increased
  Pig weight gain: increased
  Survivability: 86.87%
  Pigs weaned per litter: 9.02
  Average daily feed intake, overall: 13.16 lb
  Average daily feed intake, wk 1: 11.52 lb
  Average daily feed intake, wk 2: 14.70 lb
Sows (PIC Line C-15x326) [1]; [6]
  Litter birth weight: 34.46 lb
  Litter weight at weaning: 97.69 lb
  Litter weight gain: 62.83 lb
  Pig birth weight: 3.45 lb
  Pig wean weight: 10.94 lb
  Pig weight gain: 7.52 lb
Sows (PIC Line C-15x326) [1]; [7]
  Litter birth weight: 32.73 lb
  Litter weight at weaning: 91.91 lb
  Litter weight gain: 58.59 lb
  Pig birth weight: 3.32 lb
  Pig wean weight: 10.38 lb
  Pig weight gain: 7.11 lb
  Survivability: 86.08%
  Pigs weaned per litter: 8.89
  Average daily feed intake, overall: 13.01 lb
  Average daily feed intake, wk 1: 11.55 lb
  Average daily feed intake, wk 2: 14.41 lb
Sows (PIC Line C-15x326) [1]; L-carnitine during gestation only, control 493, P<0.01
  sow weight at weaning: 511 lb
Sows (PIC Line C-15x326) [1]; carnitine during both gestation and lactation, control 493 lb
  sow weight at weaning: 524 lb
Sows (PIC Line C-15x326) [1]; carnitine during the period of lactation only, versus control
  sow or litter performance: no differences were observed
Sows (PIC Line C-15x326) [1]; carnitine-supplemented diet during gestation only, control 0.76, P<0.02
  number of stillborn pigs per litter: 0.49 stillborn pigs/litter
Sows (PIC Line C-15x326) [2]; [8]
  number of pigs born alive in the second reproductive cycle: increased
  total number of born pigs in the second reproductive cycle: increased
Sows (PIC Line C-15x326) [2]; [4]
  Days to estrus: 5.37 days
  Farrowing rate: 93.2%
  Number born live: 12.03
  Number total born: 12.85
Sows (PIC Line C-15x326) [2]; [5]
  Days to estrus: 6.11 days
  Farrowing rate: 86.5%
  Number born live: 11.17
  Number total born: 11.97
Sows (PIC Line C-15x326) [2]; [7]
  Days to estrus: 5.82 days
  Farrowing rate: 96.3%
  Number born live: 11.22
  Number total born: 12.26
Sows (PIC Line C-15x326) [3]; days 10 and 60 of gestation, P<0.07
  insulin levels in the plasma of sows: tended to increase
Sows (PIC Line C-15x326) [3]; gestation days 60 and 90
  IGF-I concentration in sow plasma: tended to increase
